Test results taken from the supplement of paper PMC10627819.

Columns and labels:
Test in all cases: Bliss interaction score (quartile over a dose matrix) (fitness difference); higher = more antagonism (negative = synergy)
S. aureus DSM 20231 = system: S. aureus DSM 20231
In short: (§1)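 At entry into stationary phase, OD595 was recorded and divided by the robust mean of the no-drug wells on that plate, with any value above 1 set to 1. This gives the fitness measure used throughout. Single-drug fitness was inferred from combination data, and the Bliss score, observed minus product-expected fitness, is shown as quartiles across technical, biological and donor/recipient replicates.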

S. aureus Newman = system: S. aureus Newman
In short: as §1

B. subtilis 168 = system: B. subtilis 168
In short: as §1

S. pneumoniae D39V = system: S. pneumoniae D39V
In short: as §1
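Also: first quartile when negative (synergy) and third quartile when positive (antagonism).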

Compound	Bliss interaction score (S. aureus DSM 20231)	Bliss interaction score (S. aureus Newman)	Bliss interaction score (B. subtilis 168)	Bliss interaction score (S. pneumoniae D39V)	Bliss interaction score (S. aureus DSM 20231; main component drawn)	Bliss interaction score (S. aureus Newman; main component drawn)	Bliss interaction score (B. subtilis 168; main component drawn)	Bliss interaction score (S. pneumoniae D39V; main component drawn)
O=C(O)c1cn(C2CC2)c2cc(N3CCNCC3)c(F)cc2c1=O [Ciprofloxacin] + CN[C@H](CC(C)C)C(=O)N[C@H]1C(=O)N[C@@H](CC(N)=O)C(=O)N[C@H]2C(=O)N[C@H]3C(=O)N[C@H](C(=O)N[C@H](C(=O)O)c4cc(O)cc(O)c4-c4cc3ccc4O)[C@H](O[C@H]3C[C@](C)(N)[C@@H](O)[C@H](C)O3)c3ccc(c(Cl)c3)Oc3cc2cc(c3O[C@@H]2O[C@H](CO)[C@@H](O)[C@H](O)[C@H]2O[C@H]2C[C@](C)(NCc3ccc(-c4ccc(Cl)cc4)cc3)[C@@H](O)[C@H](C)O2)Oc2ccc(cc2Cl)[C@H]1O [Oritavancin]	-0.0468	-0.0474	-0.0274	0.0622	–	–	–	–
CC(=O)Oc1ccccc1C(=O)O [Acetylsalicylicacid] + N[C@@H]1CONC1=O [CycloserineD]	0.0689	-0.115	0.221	0.146	–	–	–	–
CC(=O)Oc1ccccc1C(=O)O [Acetylsalicylicacid] + CCCCCCCCCC(=O)N[C@@H]1[C@H]([C@@H]([C@H](O[C@H]1OC2=C3C=C4C=C2OC5=C(C=C(C=C5)[C@H]([C@H]6C(=O)N[C@@H](C7=C(C(=CC(=C7)O)OC8[C@H]([C@H]([C@@H]([C@H](O8)CO)O)O)O)C9=C(C=CC(=C9)[C@H](C(=O)N6)NC(=O)[C@@H]4NC(=O)[C@@H]1C2=CC(=CC(=C2)OC2=C(C=CC(=C2)[C@H](C(=O)N[C@H](CC2=CC(=C(O3)C=C2)Cl)C(=O)N1)N)O)O)O)C(=O)O)O[C@H]1[C@@H]([C@H]([C@@H]([C@H](O1)CO)O)O)NC(=O)C)Cl)CO)O)O [Teicoplanin]	–	–	–	–	0.0851	-0.0656	0.206	-0.045
N#CC(C#N)=NNc1cccc(Cl)c1 [CCCP] + C[C@H]1c2cccc(O)c2C(=O)C2=C(O)[C@]3(O)C(=O)C(C(N)=O)=C(O)[C@@H](N(C)C)[C@@H]3[C@@H](O)[C@@H]21 [Doxycycline]	-0.0215	0.0768	-0.0353	0.047	–	–	–	–
N#CC(C#N)=NNc1cccc(Cl)c1 [CCCP] + CN[C@H](CC(C)C)C(=O)N[C@H]1C(=O)N[C@@H](CC(N)=O)C(=O)N[C@H]2C(=O)N[C@H]3C(=O)N[C@H](C(=O)N[C@H](C(=O)O)c4cc(O)cc(O)c4-c4cc3ccc4O)[C@H](O[C@H]3C[C@](C)(N)[C@@H](O)[C@H](C)O3)c3ccc(c(Cl)c3)Oc3cc2cc(c3O[C@@H]2O[C@H](CO)[C@@H](O)[C@H](O)[C@H]2O[C@H]2C[C@](C)(NCc3ccc(-c4ccc(Cl)cc4)cc3)[C@@H](O)[C@H](C)O2)Oc2ccc(cc2Cl)[C@H]1O [Oritavancin]	-0.0305	0.0576	0.0275	0.0676	–	–	–	–
N#CC(C#N)=NNc1cccc(Cl)c1 [CCCP] + CN1C2=CC=CC=C2N=C3C1=CC=CC3=O [Pyocyanin]	-0.0215	-0.0376	-0.0772	-0.0451	–	–	–	–
N#CC(C#N)=NNc1cccc(Cl)c1 [CCCP] + CN(N=O)C(=O)N[C@@H](C=O)[C@@H](O)[C@H](O)[C@H](O)CO [Streptozotocin]	-0.0689	-0.0707	0.0172	0.0737	–	–	–	–
C[C@H]1c2cccc(O)c2C(=O)C2=C(O)[C@]3(O)C(=O)C(C(N)=O)=C(O)[C@@H](N(C)C)[C@@H]3[C@@H](O)[C@@H]21 [Doxycycline] + CC(=O)O[C@H]1C[C@@]2(C)[C@@H](C[C@@H](O)[C@H]3[C@@]4(C)CC[C@@H](O)[C@@H](C)[C@@H]4CC[C@@]32C)/C1=C(\CCC=C(C)C)C(=O)O [Fusidic acid]	-0.0196	0.0131	-0.049	-0.0559	–	–	–	–
CN(C)[C@@H]1C(O)=C(C(N)=O)C(=O)[C@@]2(O)C(O)=C3C(=O)c4c(O)ccc(Cl)c4[C@@](C)(O)[C@H]3C[C@@H]12 [Clortetracycline] + C[C@H]1COc2c(N3CCN(C)CC3)c(F)cc3c(=O)c(C(=O)O)cn1c23 [Levofloxacin]	0.115	0.0876	0.035	0.0525	–	–	–	–
CC(=O)Oc1ccccc1C(=O)O [Acetylsalicylicacid] + CO[C@@H]1[C@@H](OC(N)=O)[C@@H](O)[C@H](Oc2ccc3c(O)c(NC(=O)c4ccc(O)c(CC=C(C)C)c4)c(=O)oc3c2C)OC1(C)C [Novobiocin]	-0.068	-0.0718	-0.146	0.123	–	–	–	–
C[C@@H]1O[C@@H]1P(=O)(O)O [Fosfomycin] + CO[C@@]12[C@H](COC(N)=O)C3=C(C(=O)C(C)=C(N)C3=O)N1C[C@@H]1N[C@@H]12 [MitomycinC]	0.0499	-0.095	-0.116	0.117	–	–	–	–
CN(C)[C@@H]1C(O)=C(C(N)=O)C(=O)[C@@]2(O)C(O)=C3C(=O)c4c(O)ccc(Cl)c4[C@@](C)(O)[C@H]3C[C@@H]12 [Clortetracycline] + COc1ccc(C[C@H](N)C(=O)N[C@H]2[C@@H](O)[C@H](n3cnc4c(N(C)C)ncnc43)O[C@@H]2CO)cc1 [Puromycin]	-0.0681	-0.0798	-0.0605	-0.0852	–	–	–	–
COc1cccc2c1C(=O)c1c(O)c3c(c(O)c1C2=O)C[C@@](O)(C(=O)CO)C[C@@H]3O[C@H]1C[C@H](N)[C@H](O)[C@H](C)O1 [Doxorubicin] + CC[C@H]1OC(=O)[C@H](C)C(=O)[C@H](C)[C@@H](O[C@@H]2O[C@H](C)C[C@H](N(C)C)[C@H]2O)[C@](C)(OC)C[C@@H](C)C(=O)[C@H](C)[C@H]2N(CCCCn3cnc(-c4cccnc4)c3)C(=O)O[C@]12C [Telithromycin]	-0.0292	0.0489	0.0872	-0.0361	–	–	–	–
CO/N=C(\C(=O)N[C@@H]1C(=O)N2C(C(=O)O)=C(COC(C)=O)CS[C@H]12)c1csc(N)n1 [Cefotaxime] + CC(=O)O[C@H]1C[C@@]2(C)[C@@H](C[C@@H](O)[C@H]3[C@@]4(C)CC[C@@H](O)[C@@H](C)[C@@H]4CC[C@@]32C)/C1=C(\CCC=C(C)C)C(=O)O [Fusidic acid]	0.0189	0.0487	0.0613	0.11	–	–	–	–
CO/N=C(\C(=O)N[C@@H]1C(=O)N2C(C(=O)O)=C(COC(N)=O)CS[C@H]12)c1ccco1 [Cefuroxime] + Clc1ccc(COC(Cn2ccnc2)c2ccc(Cl)cc2Cl)c(Cl)c1 [Miconazole]	0.112	0.025	0.0653	0.0717	–	–	–	–
CN(C)c1cc(NC(=O)CNC(C)(C)C)c(O)c2c1C[C@H]1C[C@H]3[C@H](N(C)C)C(O)=C(C(N)=O)C(=O)[C@@]3(O)C(O)=C1C2=O [Tigecycline] + Oc1cc(Cl)ccc1Oc1ccc(Cl)cc1Cl [Triclosan]	0.101	0.0252	0.0719	0.0471	–	–	–	–
N#CC(C#N)=NNc1cccc(Cl)c1 [CCCP] + CC1(C)S[C@@H]2[C@H](NC(=O)Cc3ccccc3)C(=O)N2[C@H]1C(=O)O [PenicillinG]	0.0402	-0.0514	0.0568	0.0767	–	–	–	–
CN(C)[C@@H]1C(O)=C(C(N)=O)C(=O)[C@@]2(O)C(O)=C3C(=O)c4c(O)ccc(Cl)c4[C@@](C)(O)[C@H]3C[C@@H]12 [Clortetracycline] + Cc1ncc([N+](=O)[O-])n1CCO [Metronidazole]	0.0551	0.0714	0.141	0.104	–	–	–	–
CN(C)[C@@H]1C(O)=C(C(N)=O)C(=O)[C@@]2(O)C(O)=C3C(=O)c4c(O)ccc(Cl)c4[C@@](C)(O)[C@H]3C[C@@H]12 [Clortetracycline] + CC[C@H]1OC(=O)[C@H](C)[C@@H](O[C@H]2C[C@@](C)(OC)[C@@H](O)[C@H](C)O2)[C@H](C)[C@@H](O[C@@H]2O[C@H](C)C[C@H](N(C)C)[C@H]2O)[C@](C)(O)C[C@@H](C)C(=O)[C@H](C)[C@@H](O)[C@]1(C)O [Erythromycin]	-0.118	-0.0583	-0.214	0.0677	–	–	–	–
CN(C)[C@@H]1C(O)=C(C(N)=O)C(=O)[C@@]2(O)C(O)=C3C(=O)c4c(O)ccc(Cl)c4[C@@](C)(O)[C@H]3C[C@@H]12 [Clortetracycline] + N[C@@H]1CONC1=O [CycloserineD]	-0.118	0.0727	0.0921	0.199	–	–	–	–
CN(C)[C@@H]1C(O)=C(C(N)=O)C(=O)[C@@]2(O)C(O)=C3C(=O)c4c(O)ccc(Cl)c4[C@@](C)(O)[C@H]3C[C@@H]12 [Clortetracycline] + CCC(C)C1C(=O)NC(=C)C(=O)NC(C(=O)NC(CSCC(C(=O)N1)NC(=O)/C(=C/C)/NC(=O)C(C(C)CC)N)C(=O)NC2C(SCC(NC(=O)CNC(=O)C3CCCN3C2=O)C(=O)NC(CCCCN)C(=O)NC4C(SCC(NC(=O)CNC(=O)C(NC(=O)C(NC(=O)C(NC(=O)CNC4=O)C)CC(C)C)CCSC)C(=O)NC(CC(=O)N)C(=O)NC(CCSC)C(=O)NC(CCCCN)C(=O)NC5C(SCC6C(=O)NC(C(=O)NC(CSC(C(C(=O)N6)NC(=O)C(NC5=O)C)C)C(=O)NC(CO)C(=O)NC(C(C)CC)C(=O)NC(CC7=CN=CN7)C(=O)NC(C(C)C)C(=O)NC(=C)C(=O)NC(CCCCN)C(=O)O)CC8=CN=CN8)C)C)C)CC(C)C [Nisin]	–	–	–	–	0.0616	0.0486	0.0718	-0.122
N#CC(C#N)=NNc1cccc(Cl)c1 [CCCP] + C[C@H]1COc2c(N3CCN(C)CC3)c(F)cc3c(=O)c(C(=O)O)cn1c23 [Levofloxacin]	-0.0231	0.0426	0.0457	0.0909	–	–	–	–
CC(=O)Oc1ccccc1C(=O)O [Acetylsalicylicacid] + C/C(=C\C(=O)OCCCCCCCCC(=O)O)C[C@@H]1OC[C@H](C[C@@H]2O[C@H]2[C@@H](C)[C@H](C)O)[C@@H](O)[C@H]1O [Pseudomonic acid]	-0.0241	-0.0211	-0.2	-0.0974	–	–	–	–
CC(=O)Oc1ccccc1C(=O)O [Acetylsalicylicacid] + COc1cccc2c1C(=O)c1c(O)c3c(c(O)c1C2=O)C[C@@](O)(C(=O)CO)C[C@@H]3O[C@H]1C[C@H](N)[C@H](O)[C@H](C)O1 [Doxorubicin]	0.0666	0.0561	0.225	0.0551	–	–	–	–
N#CC(C#N)=NNc1cccc(Cl)c1 [CCCP] + CO/N=C(\C(=O)N[C@@H]1C(=O)N2C(C(=O)O)=C(COC(N)=O)CS[C@H]12)c1ccco1 [Cefuroxime]	-0.256	-0.112	0.0873	0.0309	–	–	–	–
CN(C)[C@@H]1C(O)=C(C(N)=O)C(=O)[C@@]2(O)C(O)=C3C(=O)c4c(O)ccc(Cl)c4[C@@](C)(O)[C@H]3C[C@@H]12 [Clortetracycline] + CN(C)C(=O)C(CCN1CCC(O)(c2ccc(Cl)cc2)CC1)(c1ccccc1)c1ccccc1 [Loperamide]	0.0792	-0.0458	-0.221	0.0856	–	–	–	–
CC(=O)Oc1ccccc1C(=O)O [Acetylsalicylicacid] + Cc1ncc([N+](=O)[O-])n1CCO [Metronidazole]	0.0605	-0.0652	0.203	0.056	–	–	–	–
CN(C)[C@@H]1C(O)=C(C(N)=O)C(=O)[C@@]2(O)C(O)=C3C(=O)c4c(O)ccc(Cl)c4[C@@](C)(O)[C@H]3C[C@@H]12 [Clortetracycline] + O=C1CN(/N=C/c2ccc([N+](=O)[O-])o2)C(=O)N1 [Nitrofurantoin]	0.016	-0.0647	-0.158	-0.0355	–	–	–	–
N#CC(C#N)=NNc1cccc(Cl)c1 [CCCP] + COc1cccc2c1C(=O)c1c(O)c3c(c(O)c1C2=O)C[C@@](O)(C(=O)CO)C[C@@H]3O[C@H]1C[C@H](N)[C@H](O)[C@H](C)O1 [Doxorubicin]	0.0424	-0.0546	-0.0695	-0.0519	–	–	–	–
